Reference: publication PMC6272674, “Selected Compounds Structurally Related to Acyclic Sesquiterpenoids and Their Antibacterial and Cytotoxic Activity” (Molecules, 2015)
pIC50: −log10 of the molar value. ≈ marks a conversion by molar mass, not a printed value.

Test system: Staphylococcus aureus ATCC 43300
Experiment: Micro-dilution broth MIC, Staphylococcus aureus
Type: cell-based
Conditions: ATCC43300, 24 h, 37 °C, read-out: Minimum Inhibitory Concentrations MIC
Procedure: (§1) The standard strains, Gram-positive: Staphylococcus aureus ATCC […], Enterococcus faecalis Van B ATCC 51299 and Enterococcus faecium VA sensitive ATCC 35667, and Gram-negative: Escherichia coli ATCC 25922, Klebsiella pneumoniae ATCC 700603 and Acinetobacter baumannii ATCC 19606, came from a collection of the Environmental Biology Department, Medical University of Łódź. The standard strains were cultivated in Columbia Agar Medium and incubated at 37 °C for 24 h in aerobic conditions.
(§2) The antibacterial activity of the racemates and E/Z-mixtures was investigated using the micro‑dilution broth method. The compounds were diluted in ethanol. This stock solution was mixed with 100 µL of Mueller-Hinton broth to obtain concentrations from 10 µg/mL to 80 µg/mL. The mixtures were then transferred to 96-well microtiter plates. The microbial suspension was standardised to a cell density of 1.5 × 10^8 CFU, which was equal to an optical density of 0.5 on the Mc Farland scale by a bio-Merieux densitometer; one well was filled with broth only to act as a control for strain growth.

MIC | Structure (SMILES)
22 µg/mL (≈ 87.9 µM) | CC(C)=CCCC(C)C(C)=CCCC(C)=CCO (stereo not drawn) [Compound 24, 3,7,8,12-Tetramethyltrideca-2,6,11-trien-1-ol]
28 µg/mL (≈ 118 µM) | CC(C)=CCCC(C)/C=C/CCC(C)=CCO (stereo not drawn) [Compound 25, (6E)-3,8,12-Trimethyltrideca-2,6,11-trien-1-ol]
32 µg/mL (≈ 127 µM) | CC(=CCO)CCC=C(C)C(C)CCCC(C)C (stereo not drawn) [Compound 26, 3,7,8,12-Tetramethyltrideca-2,6-dien-1-ol]
28 µg/mL (≈ 143 µM) | CC(C)=CCCC(C)CC(C)=CCO (stereo not drawn) [Compound 27, 3,5,9-Trimethyldeca-2,8-dien-1-ol]

Test system: Enterococcus faecalis ATCC 51299
Experiment: Micro-dilution broth MIC, Enterococcus faecalis
Type: cell-based
Conditions: ATCC51299, 24 h, 37 °C, read-out: Minimum Inhibitory Concentrations MIC
Procedure: as §1, §2

MIC | Structure (SMILES)
18 µg/mL (≈ 71.9 µM) | CC(C)=CCCC(C)C(C)=CCCC(C)=CCO (stereo not drawn) [Compound 24, 3,7,8,12-Tetramethyltrideca-2,6,11-trien-1-ol]
32 µg/mL (≈ 135 µM) | CC(C)=CCCC(C)/C=C/CCC(C)=CCO (stereo not drawn) [Compound 25, (6E)-3,8,12-Trimethyltrideca-2,6,11-trien-1-ol]
30 µg/mL (≈ 119 µM) | CC(=CCO)CCC=C(C)C(C)CCCC(C)C (stereo not drawn) [Compound 26, 3,7,8,12-Tetramethyltrideca-2,6-dien-1-ol]
26 µg/mL (≈ 132 µM) | CC(C)=CCCC(C)CC(C)=CCO (stereo not drawn) [Compound 27, 3,5,9-Trimethyldeca-2,8-dien-1-ol]

Test system: Enterococcus faecium ATCC 35667
Experiment: Micro-dilution broth MIC, Enterococcus faecium
Type: cell-based
Conditions: ATCC35667, 24 h, 37 °C, read-out: Minimum Inhibitory Concentrations MIC
Procedure: as §1, §2

MIC | Structure (SMILES)
32 µg/mL (≈ 128 µM) | CC(C)=CCCC(C)C(C)=CCCC(C)=CCO (stereo not drawn) [Compound 24, 3,7,8,12-Tetramethyltrideca-2,6,11-trien-1-ol]
34 µg/mL (≈ 144 µM) | CC(C)=CCCC(C)/C=C/CCC(C)=CCO (stereo not drawn) [Compound 25, (6E)-3,8,12-Trimethyltrideca-2,6,11-trien-1-ol]
36 µg/mL (≈ 143 µM) | CC(=CCO)CCC=C(C)C(C)CCCC(C)C (stereo not drawn) [Compound 26, 3,7,8,12-Tetramethyltrideca-2,6-dien-1-ol]
18 µg/mL (≈ 91.7 µM) | CC(C)=CCCC(C)CC(C)=CCO (stereo not drawn) [Compound 27, 3,5,9-Trimethyldeca-2,8-dien-1-ol]

Test system: Escherichia coli ATCC 25922
Experiment: Micro-dilution broth MIC, Escherichia coli
Type: cell-based
Conditions: ATCC25922, 24 h, 37 °C, read-out: Minimum Inhibitory Concentrations MIC
Procedure: as §1, §2

MIC | Structure (SMILES)
52 µg/mL (≈ 208 µM) | CC(C)=CCCC(C)C(C)=CCCC(C)=CCO (stereo not drawn) [Compound 24, 3,7,8,12-Tetramethyltrideca-2,6,11-trien-1-ol]
50 µg/mL (≈ 212 µM) | CC(C)=CCCC(C)/C=C/CCC(C)=CCO (stereo not drawn) [Compound 25, (6E)-3,8,12-Trimethyltrideca-2,6,11-trien-1-ol]
48 µg/mL (≈ 190 µM) | CC(=CCO)CCC=C(C)C(C)CCCC(C)C (stereo not drawn) [Compound 26, 3,7,8,12-Tetramethyltrideca-2,6-dien-1-ol]
36 µg/mL (≈ 183 µM) | CC(C)=CCCC(C)CC(C)=CCO (stereo not drawn) [Compound 27, 3,5,9-Trimethyldeca-2,8-dien-1-ol]

Test system: Klebsiella pneumoniae ATCC 700603
Experiment: Micro-dilution broth MIC, Klebsiella pneumoniae
Type: cell-based
Conditions: ATCC700603, 24 h, 37 °C, read-out: Minimum Inhibitory Concentrations MIC
Procedure: as §1, §2

MIC | Structure (SMILES)
44 µg/mL (≈ 176 µM) | CC(C)=CCCC(C)C(C)=CCCC(C)=CCO (stereo not drawn) [Compound 24, 3,7,8,12-Tetramethyltrideca-2,6,11-trien-1-ol]
48 µg/mL (≈ 203 µM) | CC(C)=CCCC(C)/C=C/CCC(C)=CCO (stereo not drawn) [Compound 25, (6E)-3,8,12-Trimethyltrideca-2,6,11-trien-1-ol]
42 µg/mL (≈ 166 µM) | CC(=CCO)CCC=C(C)C(C)CCCC(C)C (stereo not drawn) [Compound 26, 3,7,8,12-Tetramethyltrideca-2,6-dien-1-ol]
18 µg/mL (≈ 91.7 µM) | CC(C)=CCCC(C)CC(C)=CCO (stereo not drawn) [Compound 27, 3,5,9-Trimethyldeca-2,8-dien-1-ol]

Test system: Acinetobacter baumannii ATCC 19606
Experiment: Micro-dilution broth MIC, Acinetobacter baumannii
Type: cell-based
Conditions: ATCC19606, 24 h, 37 °C, read-out: Minimum Inhibitory Concentrations MIC
Procedure: as §1, §2

MIC | Structure (SMILES)
40 µg/mL (≈ 160 µM) | CC(C)=CCCC(C)C(C)=CCCC(C)=CCO (stereo not drawn) [Compound 24, 3,7,8,12-Tetramethyltrideca-2,6,11-trien-1-ol]
44 µg/mL (≈ 186 µM) | CC(C)=CCCC(C)/C=C/CCC(C)=CCO (stereo not drawn) [Compound 25, (6E)-3,8,12-Trimethyltrideca-2,6,11-trien-1-ol]
38 µg/mL (≈ 151 µM) | CC(=CCO)CCC=C(C)C(C)CCCC(C)C (stereo not drawn) [Compound 26, 3,7,8,12-Tetramethyltrideca-2,6-dien-1-ol]
34 µg/mL (≈ 173 µM) | CC(C)=CCCC(C)CC(C)=CCO (stereo not drawn) [Compound 27, 3,5,9-Trimethyldeca-2,8-dien-1-ol]

Test system: Malignant Melanoma MEWO
Experiment: MTT viability, MEWO
Type: cell-based, human
Conditions: Homo sapiens, 24 h, range 10–1000 µM, read-out: half maximal inhibitory concentration (IC50), interpolated
Procedure: (§3) Cell lines and in vitro culture conditions: The human promyelocytic leukaemia cell line HL-60 was obtained from the Centre of Molecular and Macromolecular Biology in Łódź, Poland and was cultured in RPMI 1640 medium with 20% heat-inactivated fetal bovine serum (FBS). To reduce spontaneous differentiation, the cells were never allowed to exceed a concentration of 1.0 × 10^6 cells/mL. The human keratinocyte cell line HaCaT was obtained from Cell Lines Service, Germany (CLS) and cultured in DMEM medium with 10% FBS. Human colorectal adenocarcinoma HT29 and normal epithelial IEC-6 cell lines (from ATCC) were cultured in DMEM medium with 10% FBS. The human skin melanoma cell line MEWO (from CLS) was cultured in DMEM:F12 supplemented with 2 mM L-glutamine and 10% FBS. Human fibroblasts from gingiva isolated from original tissue, HFIB-G, (from Provitro) were cultured in Quantum 333 (from Immunique). The media were supplemented with 100 U/mL penicillin and 100 µg/mL streptomycin; all media components were obtained from Life Technologies. The adherent cell lines used in the studies were seeded on microplates before they exceeded 80% of confluence. Cells were cultured at 37 °C in 5% CO2 air atmosphere/95% air atmosphere.
(§4) Cytotoxic activity: The cells (the density for HL-60 was 0.5 × 10^4 cells/100 µL, otherwise it was 1 × 10^4 cells/100 µL) were plated into each well of 96-well microtiter plates and, after their attachment to the plate surface, treated with 10 µL of the indicated concentrations of compounds for 24 h. Viability was determined by MTT assay following the treatment. MTT (3-[4.5-dimethylthiazol-2-yl]-2.5-diphenyltetrazolium bromide; Sigma, St. Louis, MO, USA) solution was added to each well and incubated for another 4 h. The resulting MTT-formazan product was dissolved by the addition of lysis buffer (20% SDS and 50% DMF). The amount of formazan was determined by measuring absorbance at 570 nm with a Synergy 2 microplate reader (BioTek, Winooski, VT, USA) operated by the Gen5 program. The experiments were conducted three times with five replications. The results are expressed as an optical density ratio of the treatment to control. All data are presented as means ± SD.

pIC50 | Structure (SMILES)
3.29 | CC(C)=CCCC(C)C(C)=CCCC(C)=CCO (stereo not drawn) [Compound 24, 3,7,8,12-Tetramethyltrideca-2,6,11-trien-1-ol]
3.30 | CC(C)=CCCC(C)/C=C/CCC(C)=CCO (stereo not drawn) [Compound 25, (6E)-3,8,12-Trimethyltrideca-2,6,11-trien-1-ol]
3.31 | CC(=CCO)CCC=C(C)C(C)CCCC(C)C (stereo not drawn) [Compound 26, 3,7,8,12-Tetramethyltrideca-2,6-dien-1-ol]
3.34 | CC(C)=CCCC(C)CC(C)=CCO (stereo not drawn) [Compound 27, 3,5,9-Trimethyldeca-2,8-dien-1-ol]

Test system: not listed separately
Experiment: MTT viability, HT29
Type: cell-based, human
Conditions: human, HT29 colorectal adenocarcinoma cells, 1000 µM (IC50 exceeded 1000 µM), read-out: viability ± standard deviation at 1000 µM
Procedure: as §3, §4

Structure (SMILES) | viability at 24 h, 1000 µM
CC(C)=CCCC(C)C(C)=CCCC(C)=CCO (stereo not drawn) [Compound 24, 3,7,8,12-Tetramethyltrideca-2,6,11-trien-1-ol] | 78%
CC(C)=CCCC(C)/C=C/CCC(C)=CCO (stereo not drawn) [Compound 25, (6E)-3,8,12-Trimethyltrideca-2,6,11-trien-1-ol] | 108%
CC(=CCO)CCC=C(C)C(C)CCCC(C)C (stereo not drawn) [Compound 26, 3,7,8,12-Tetramethyltrideca-2,6-dien-1-ol] | 96%
CC(C)=CCCC(C)CC(C)=CCO (stereo not drawn) [Compound 27, 3,5,9-Trimethyldeca-2,8-dien-1-ol] | 106%

Test system: Promyelocytic Leukaemia HL-60
Experiment: MTT viability, HL-60
Type: cell-based, human
Conditions: Homo sapiens, HL-60, 24 h, HL-60, MTT, range 10–1000 µM, read-out: half maximal inhibitory concentration (IC50), interpolated
Procedure: as §3, §4

pIC50 | Structure (SMILES)
4.00 | CC(C)=CCCC(C)C(C)=CCCC(C)=CCO (stereo not drawn) [Compound 24, 3,7,8,12-Tetramethyltrideca-2,6,11-trien-1-ol]
3.78 | CC(C)=CCCC(C)/C=C/CCC(C)=CCO (stereo not drawn) [Compound 25, (6E)-3,8,12-Trimethyltrideca-2,6,11-trien-1-ol]
3.84 | CC(=CCO)CCC=C(C)C(C)CCCC(C)C (stereo not drawn) [Compound 26, 3,7,8,12-Tetramethyltrideca-2,6-dien-1-ol]
3.84 | CC(C)=CCCC(C)CC(C)=CCO (stereo not drawn) [Compound 27, 3,5,9-Trimethyldeca-2,8-dien-1-ol]

Test system: Fibroblasts HFIG
Experiment: MTT viability, HFIG
Type: cell-based, human
Conditions: Homo sapiens, Fibroblast, 24 h, range 10–1000 µM, read-out: half maximal inhibitory concentration (IC50), interpolated
Procedure: as §3, §4

Structure (SMILES) | pIC50
CC(C)=CCCC(C)C(C)=CCCC(C)=CCO (stereo not drawn) [Compound 24, 3,7,8,12-Tetramethyltrideca-2,6,11-trien-1-ol] | 3.41
CC(C)=CCCC(C)/C=C/CCC(C)=CCO (stereo not drawn) [Compound 25, (6E)-3,8,12-Trimethyltrideca-2,6,11-trien-1-ol] | 3.34
CC(=CCO)CCC=C(C)C(C)CCCC(C)C (stereo not drawn) [Compound 26, 3,7,8,12-Tetramethyltrideca-2,6-dien-1-ol] | 3.27
CC(C)=CCCC(C)CC(C)=CCO (stereo not drawn) [Compound 27, 3,5,9-Trimethyldeca-2,8-dien-1-ol] | 3.31

Test system: Keratinocytes HaCaT
Experiment: MTT viability, HaCaT
Type: cell-based, human
Conditions: Homo sapiens, 24 h, range 10–1000 µM, read-out: half maximal inhibitory concentration (IC50), interpolated
Procedure: as §3, §4

Structure (SMILES) | pIC50
CC(C)=CCCC(C)C(C)=CCCC(C)=CCO (stereo not drawn) [Compound 24, 3,7,8,12-Tetramethyltrideca-2,6,11-trien-1-ol] | 3.16
CC(C)=CCCC(C)/C=C/CCC(C)=CCO (stereo not drawn) [Compound 25, (6E)-3,8,12-Trimethyltrideca-2,6,11-trien-1-ol] | 3.18
CC(=CCO)CCC=C(C)C(C)CCCC(C)C (stereo not drawn) [Compound 26, 3,7,8,12-Tetramethyltrideca-2,6-dien-1-ol] | 3.21
CC(C)=CCCC(C)CC(C)=CCO (stereo not drawn) [Compound 27, 3,5,9-Trimethyldeca-2,8-dien-1-ol] | 3.16

Test system: not listed separately
Experiment: MTT viability, IEC6
Type: cell-based
Conditions: rat, IEC-6 small intestine epithelial cells, 1000 µM (IC50 exceeded 1000 µM), read-out: viability ± standard deviation at 1000 µM
Procedure: as §3, §4

Structure (SMILES) | viability at 24 h, 1000 µM
CC(C)=CCCC(C)C(C)=CCCC(C)=CCO (stereo not drawn) [Compound 24, 3,7,8,12-Tetramethyltrideca-2,6,11-trien-1-ol] | 85%
CC(C)=CCCC(C)/C=C/CCC(C)=CCO (stereo not drawn) [Compound 25, (6E)-3,8,12-Trimethyltrideca-2,6,11-trien-1-ol] | 82%
CC(=CCO)CCC=C(C)C(C)CCCC(C)C (stereo not drawn) [Compound 26, 3,7,8,12-Tetramethyltrideca-2,6-dien-1-ol] | 76%
CC(C)=CCCC(C)CC(C)=CCO (stereo not drawn) [Compound 27, 3,5,9-Trimethyldeca-2,8-dien-1-ol] | 93%
